From paper PMC8035703, “Effect of Synchronous Versus Sequential Regimens on the Pharmacokinetics and Biodistribution of Regorafenib with Irradiation” (Pharmaceutics, 2021)
Like-named read-outs stand apart in the source and are kept apart here.

Key:
[1] = tested on: Huh-7 cells; experiment: Morphological observation (Liu's stain); type: cell-based, human; conditions: regorafenib 0-20 μM with RT
Experimental: Huh-7 cells were treated with regorafenib at concentrations of 0, 5, 10 and 20 μmol/L (μM) in the concurrent and sequential groups with different RT doses. Then, the cells were centrifuged by using Cytospin (Shandon Inc., Pittsburgh, PA). Liu’s A solution and Liu’s B solution were used on glass slides for 45 and 90 s, respectively. Then, a light microscope (Olympus, Tokyo, Japan) was used to observe the Huh-7 cells.

[2] = Hepatic and renal functions (GPT, creatinine) in rats; type: in vivo, Sprague-Dawley rats; conditions: rat
Experimental: Glutamic-pyruvic transaminase (GPT) and […] were measured to check the influence of different modalities on hepatic function and renal function by a standard colorimetric method, using a Synchron LX20 spectrophotometer (Beckman Coulter) and manufacturer-supplied reagents.

[3] = tested on: Hep G2 cells; experiment: Cell viability assay (MTT), Hep G2; type: cell-based; conditions: Homo sapiens; for IC50: MTT after 24 h, read-out: IC50 (estimated concentration at which 50% of cells were killed); for viability at 5 µM: HepG2, regorafenib 5 μM; for viability at 10 µM: HepG2, regorafenib 10 μM; for viability at 20 µM: HepG2, regorafenib 20 μM
Experimental: Human hepatoma Huh-7 and Hep G2 cell lines kindly provided by Professor Hu (Taipei Veterans General Hospital, Taiwan) were plated into 96-well plates (1 × 10^3 per well) with serum-containing medium (100 μL) for 1 day. Regorafenib at concentrations of 0, 5, 10 and 20 μmol/L (μM) was added to the plates. Then, the study groups were designed: the concurrent group (1 h after irradiation) or sequential group (24 h after irradiation) with sham RT (RT0 Gy), 2 Gy (RT2 Gy) and 9 Gy (RT9 Gy). Additionally, after 24 h, 20 μL of 5 mg/mL MTT was added to the plates and incubated for 3 h. The supernatant was discarded, the precipitate was dissolved in 200 μL DMSO, and the plates were read with a microplate reader at 570 nm and a reference wavelength of 630 nm.

Creatinine at 240 min ([2]; concurrent RT2 Gy × 1 f'x): 0.25 ± 0.06 mg/dL
Glutamate pyruvate transaminase at 240 min ([2]; concurrent RT2 Gy × 1 f'x): 31.8 ± 5.3 UI
Creatinine at 240 min ([2]; concurrent RT9 Gy × 1 f'x): 0.21 ± 0.02 mg/dL
Glutamate pyruvate transaminase at 240 min ([2]; concurrent RT9 Gy × 1 f'x): 33.5 ± 8.8 UI
Glutamate pyruvate transaminase and creatinine, regorafenib with vs without RT ([2]; different regimens and doses): no significant differences
Creatinine at 240 min ([2]; regorafenib-only): 0.23 ± 0.04 mg/dL
Glutamate pyruvate transaminase at 240 min ([2]; regorafenib-only): 36.3 ± 15.0 UI
Creatinine at 240 min ([2]; sequential RT2 Gy × 1 f'x): 0.22 ± 0.04 mg/dL
Glutamate pyruvate transaminase at 240 min ([2]; sequential RT2 Gy × 1 f'x): 30.5 ± 6.0 UI
Creatinine at 240 min ([2]; sequential RT9 Gy × 1 f'x): 0.25 ± 0.04 mg/dL
Glutamate pyruvate transaminase at 240 min ([2]; sequential RT9 Gy × 1 f'x): 33.7 ± 5.2 UI
SMILES: CNC(=O)c1cc(Oc2ccc(NC(=O)Nc3ccc(Cl)c(C(F)(F)F)c3)c(F)c2)ccn1 [regorafenib, Regorafenib]
Morphological changes (in words) [1]: Cell shrinkage and pyknosis occurred in a dose-dependent manner
IC50 ([3]; HepG2, 24 h, Hep G2, RT0 Gy, S (regorafenib added 24 h following RT)): 17.7 µM
IC50 ([3]; HepG2, 24 h, Hep G2, RT2 Gy, S (regorafenib added 24 h following RT)): 18.9 µM
IC50 ([3]; HepG2, 24 h, Hep G2, RT9 Gy, S (regorafenib added 24 h following RT)): 16.8 µM
IC50 ([3]; HepG2, Hep G2, RT0 Gy, C (regorafenib added 1 h following RT)): 9.87 µM
IC50 ([3]; HepG2, Hep G2, RT2 Gy, C (regorafenib added 1 h following RT)): 10.5 µM
IC50 ([3]; HepG2, Hep G2, RT9 Gy, C (regorafenib added 1 h following RT)): 8.43 µM
viability at 5 µM ([3]; Hep G2, RT0 Gy, C): 74.6 ± 2.4%
viability at 5 µM ([3]; Hep G2, RT0 Gy, S): 82 ± 1.9%
viability at 5 µM ([3]; Hep G2, RT2 Gy, C): 73.1 ± 11.7%
viability at 5 µM ([3]; Hep G2, RT2 Gy, S): 72.1 ± 1.7%
viability at 5 µM ([3]; Hep G2, RT9 Gy, C): 64.7 ± 11.3%
viability at 5 µM ([3]; Hep G2, RT9 Gy, S): 71 ± 5.3%
viability at 10 µM ([3]; Hep G2, RT0 Gy, C): 51.3 ± 3.1%
viability at 10 µM ([3]; Hep G2, RT0 Gy, S): 67 ± 1.3%
viability at 10 µM ([3]; Hep G2, RT2 Gy, C): 50.8 ± 7%
viability at 10 µM ([3]; Hep G2, RT2 Gy, S): 64.1 ± 1.3%
viability at 10 µM ([3]; Hep G2, RT9 Gy, C): 46.7 ± 8.9%
viability at 10 µM ([3]; Hep G2, RT9 Gy, S): 64.2 ± 4.3%
viability at 20 µM ([3]; Hep G2, RT0 Gy, C): 24.7 ± 1.2%
viability at 20 µM ([3]; Hep G2, RT0 Gy, S): 46 ± 3.4%
viability at 20 µM ([3]; Hep G2, RT2 Gy, C): 24.5 ± 2.5%
viability at 20 µM ([3]; Hep G2, RT2 Gy, S): 42.4 ± 0.8%
viability at 20 µM ([3]; Hep G2, RT9 Gy, C): 20.6 ± 1.5%
viability at 20 µM ([3]; Hep G2, RT9 Gy, S): 38.5 ± 1.9%
